Test results published in the NIST ThermoML archive (doi:10.1016/j.tca.2013.05.039).
± gives the expanded uncertainty stated by the source.

Tests used:
[1] = Adiabatic calorimetry
[2] = Molar enthalpy of transition or fusion; conditions: Adiabatic calorimetry

- Triple point temperature ([1]; Crystal 2): 186.18 ± 0.049 K
- Triple point temperature ([1]; Crystal): 279.86 ± 0.066 K
- Molar enthalpy of transition or fusion ([2]; Crystal 2): 1.61 ± 0.0163 kcal/mol
- Molar enthalpy of transition or fusion ([2]; Crystal): 0.642 ± 0.0129 kcal/mol
Structure (SMILES): C1CCCCC1 [cyclohexane]
